Reference: patent US7504421B2, “Substituted 2-thio-3,5-dicyano-4-aryl-6-aminopyridines and their use” (priority 1999, dated 2009)
Where two headings read alike, the source gives them in different places.

What was measured:
[1] = system: Langendorff heart of the rat (coronary arteries); experiment: Langendorff heart of the rat: coronary perfusion pressure, left ventricular pressure, heart rate; details: isolated rat heart
Procedure: After opening the thoracic cage of anesthetized rats, the heart is removed quickly and introduced into a conventional Langendorff apparatus. The coronary arteries are perfused at a constant volume (10 ml/min), and the resulting perfusion pressure is recorded via an appropriate pressure sensor. In this arrangement, a decrease of the perfusion pressure corresponds to a relaxation of the coronary arteries. At the same time, the pressure which is developed by the heart during each contraction is measured via a balloon introduced into the left ventricle and a further pressure sensor. The frequency of the isolated beating heart is calculated from the number of contractions per time unit.
In this test arrangement, the following values were obtained for the coronary perfusion pressure (the stated percentage refers to the reduction of the coronary perfusion pressure in percent at the respective concentration):
At the stated concentrations, the substances tested had no effect on the pressure developed during the contraction in the left ventricle and no effect on the heart rate.

[2] = molecular target: T1, adenosine A2b receptor (Homo sapiens, UniProt P29275); experiment: Intracellular cAMP (cAMP-RIA) in CHO cells transfected with cDNA for the A2b receptor, agonist mode; assay type: cell-based; details: for activity at 0.1 µM / activity at 1 µM / activity at 10 µM / activity at 0.01 µM / activity at 0.001 µM: read-out: Concentration of intracellular cAMP in percent; for agonistic effect on cells which express the adenosine receptor A2b (in words): summary of cAMP data
T1 sequence (P29275 1-332): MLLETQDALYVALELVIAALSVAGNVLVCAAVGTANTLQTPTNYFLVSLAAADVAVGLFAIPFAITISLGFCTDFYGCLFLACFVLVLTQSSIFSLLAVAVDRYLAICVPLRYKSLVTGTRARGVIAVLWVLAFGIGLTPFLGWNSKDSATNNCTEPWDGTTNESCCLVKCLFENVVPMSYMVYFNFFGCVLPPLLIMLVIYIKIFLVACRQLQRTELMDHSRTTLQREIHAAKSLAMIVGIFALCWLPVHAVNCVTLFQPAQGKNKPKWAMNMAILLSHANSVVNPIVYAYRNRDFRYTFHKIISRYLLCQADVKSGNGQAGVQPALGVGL
Procedure: (§1) Cells of the permanent line CHO (Chinese Hamster Ovary) were stably transfected with cDNA for the adenosine receptor subtypes A1, A2a, A2b and A3. Binding of the substances to the A2a or A2b receptor subtypes was determined by measuring the intracellular cAMP concentration in these cells using a conventional radioimmunological assay (cAMP-RIA, IBL GmbH, Hamburg, Germany).
(§2) In the case of the action of the substances as agonists, binding of the substances is expressed in an increase of the intracellular cAMP concentration.
In the experiments below, the intracellular cAMP concentration in CHO cells which had been transfected with cDNA for the A2b receptor was determined. What is stated is the cAMP concentration in percent in all cells in a well of a microtiter plate, based on the control value obtained without any substances acting on the cells: […]

[3] = molecular target: adenosine A2a receptor (Homo sapiens, UniProt P29274); experiment: Intracellular cAMP (cAMP-RIA) in CHO cells transfected with cDNA for the A2a receptor, agonist mode; assay type: cell-based; details: for Concentration of intracellular cAMP in percent: CHO cells with A2a receptor, based on control without substance; for effect on cells with the A2a receptor (in words): summary of cAMP data
Procedure: as §1, §2
In the experiments below, the intracellular cAMP concentration in CHO cells which had been transfected with cDNA for the A2a receptor was determined. What is stated is the cAMP concentration in percent in all cells in a well of a microtiter plate, based on the control value obtained without any substances acting on the cells: […]

[4] = molecular target: T2, adenosine A1 receptor (Homo sapiens, UniProt P30542); experiment: Intracellular cAMP in CHO cells transfected with cDNA for the A1 receptor after prestimulation with forskolin; assay type: cell-based; details: for remaining activity at 10 µM / remaining activity at 1 µM / remaining activity at 0.1 µM: CHO cells with A1 receptor, based on control prestimulated with 1 μM forskolin for 15 min (18% without forskolin), read-out: Concentration of intracellular cAMP in percent; for remaining activity at 10 µM: 10^-5 M; for remaining activity at 1 µM: 10^-6 M; for remaining activity at 0.1 µM: 10^-7 M; for receptor selectivity: adenosine A1 receptor: conclusion from cAMP data on A1, A2a, A2b cells; for agonistic effect on cells with the A1 receptor (in words): summary of cAMP data
T2 sequence (P30542 1-326): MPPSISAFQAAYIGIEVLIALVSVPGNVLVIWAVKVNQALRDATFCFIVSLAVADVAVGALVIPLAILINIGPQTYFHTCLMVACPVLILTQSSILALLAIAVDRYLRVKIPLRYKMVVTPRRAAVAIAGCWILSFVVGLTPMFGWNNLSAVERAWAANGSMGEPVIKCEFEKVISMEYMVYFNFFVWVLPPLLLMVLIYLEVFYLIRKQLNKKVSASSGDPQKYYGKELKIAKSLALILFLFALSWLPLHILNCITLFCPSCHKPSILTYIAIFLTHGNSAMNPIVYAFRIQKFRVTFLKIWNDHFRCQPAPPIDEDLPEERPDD
Procedure: as §1
The adenosine receptors A1 and A3 are coupled to a Gi protein, i.e. stimulation of these receptors results in an inhibition of adenylate cyclase and thus a reduction of the intracellular cAMP level. To identify A1/A3 receptor agonists, the adenylate cyclase is stimulated using forskolin. However, additional stimulation of the A1/A3 receptors inhibits adenylate cyclase, so that it is possible to detect A1/A3 receptor agonists by a comparatively low concentration of cAMP in the cell.
In the following experiments, the intracellular cAMP concentration in CHO cells transfected with the cDNA for the A1 receptor was determined.

[5] = CHO cells with A2b receptor, 10^-5 M, based on control without substance
[6] = CHO cells with A2b receptor, 10^-6 M, based on control without substance
[7] = CHO cells with A2b receptor, 10^-7 M, based on control without substance

Chain of adenosine A2a receptor (P29274 whole entry): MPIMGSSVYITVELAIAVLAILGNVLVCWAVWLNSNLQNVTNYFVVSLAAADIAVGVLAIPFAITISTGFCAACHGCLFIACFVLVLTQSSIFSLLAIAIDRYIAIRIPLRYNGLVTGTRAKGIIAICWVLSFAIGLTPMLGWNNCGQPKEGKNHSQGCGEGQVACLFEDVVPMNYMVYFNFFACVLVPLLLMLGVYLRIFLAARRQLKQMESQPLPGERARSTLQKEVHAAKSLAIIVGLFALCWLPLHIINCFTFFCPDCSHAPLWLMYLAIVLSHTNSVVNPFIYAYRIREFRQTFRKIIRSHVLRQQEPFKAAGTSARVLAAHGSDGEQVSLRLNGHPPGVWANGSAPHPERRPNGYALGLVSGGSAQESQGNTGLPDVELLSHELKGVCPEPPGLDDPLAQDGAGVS

SMILES	Reduction of the coronary perfusion pressure in percent ([1]; concentration 10^-6 g/ml)	Reduction of the coronary perfusion pressure in percent ([1]; concentration 10^-7 g/ml)	Concentration of intracellular cAMP in percent ([3]; 10^-6 M) [%]	Concentration of intracellular cAMP in percent ([3]; 10^-7 M) [%]	activity at 10 µM [2, 5] [%]	activity at 1 µM [2, 6] [%]	activity at 0.1 µM [2, 7] [%]	agonistic effect on cells which express the adenosine receptor A2b (in words) [2]	Concentration of intracellular cAMP in percent ([3]; 10^-5 M) [%]	effect on cells with the A2a receptor (in words) [3]	remaining activity at 10 µM [4] [%]	remaining activity at 1 µM [4] [%]	remaining activity at 0.1 µM [4] [%]	agonistic effect on cells with the A1 receptor (in words) [4]	further results
N#Cc1c(N)nc(SCCO)c(C#N)c1-c1ccc(O)cc1 [Example 21, 2-Amino-6-[(2-hydroxyethyl)sulfanyl]-4-(4-hydroxyphenyl)-3,5-pyridinedicarbonitrile]	about 75%	about 40%	117	143											activity at 0.1 µM ([2]; CHO): 253%; activity at 1 µM ([2]; CHO): 432%; activity at 10 µM ([2]; CHO): 384%
N#Cc1c(N)nc(SCCO)c(C#N)c1-c1cccc(O)c1 [A 43]	about 68%	about 42%	200	117	784	674	347	considerably weaker effect	317	virtually no effect	22	24	18	clear agonistic effect	receptor selectivity: adenosine A1 receptor [4]: selective adenosine A1 receptor agonists
N#Cc1c(N)nc(SCCO)c(C#N)c1-c1ccccc1 [A 104]			146	107	571	586	438	considerably weaker effect	212	virtually no effect	21	23	28	clear agonistic effect	activity at 0.01 µM ([2]; CHO cells with A2b receptor, 10^-8 M, based on control without substance): 178%; activity at 0.001 µM ([2]; CHO cells with A2b receptor, 10^-9 M, based on control without substance): 100%; Concentration of intracellular cAMP in percent ([3]; 10^-8 M): 107%; Concentration of intracellular cAMP in percent ([3]; 10^-9 M): 104%; receptor selectivity: adenosine A1 receptor [4]: selective adenosine A1 receptor agonists
CC(O)CSc1nc(N)c(C#N)c(-c2cccc(O)c2)c1C#N (stereo not drawn) [A 46]			108	67	753	716	463		183						
Cc1ccc(-c2c(C#N)c(N)nc(SCC(O)CO)c2C#N)cc1 (stereo not drawn) [A 198]	about 26%	no effect observed													
N#Cc1c(N)nc(SCC(N)=O)c(C#N)c1-c1ccc(O)cc1 [A 1]			117	92	900	947	837	clear agonistic effect	208	virtually no effect					
N#Cc1c(N)nc(SCc2ncc[nH]2)c(C#N)c1-c1ccc(O)cc1 [A 379]	about 63%	about 64%	235	218				clear agonistic effect	291	virtually no effect	35	34	34	comparably weaker effect	activity at 0.001 µM ([2]; CHO): 870%; activity at 0.01 µM ([2]; CHO): 846%; activity at 0.1 µM ([2]; CHO): 861%; activity at 1 µM ([2]; CHO): 936%; receptor selectivity: adenosine A2b receptor ([2]; conclusion from cAMP data on A1, A2a, A2b cells): selective adenosine A2b receptor agonist; Concentration of intracellular cAMP in percent ([3]; 10^-8 M): 160%; Concentration of intracellular cAMP in percent ([3]; 10^-9 M): 93%
Cc1ccc(-c2c(C#N)c(N)nc(SCc3ccccc3)c2C#N)cc1 [A 189]	about 37%	no effect observed													
